Test: Storage stability studies (Example 27): appearance, PXRD, HPLC purity, impurities and chiral purity
Type: physicochemical
Conditions: for Chiral Purity / Highest Impurity / Purity / Sulfide / Sulfone: HPLC
From the text: A high performance liquid chromatography (HPLC) method for measuring the chemical purity of dexlansoprazole or a compound of formula (VII) of the present application, and for determination of their corresponding impurities, involves the use of a YMC-PAK ODS-A 100×4.6, 3 μm or equivalent column.
A high performance liquid chromatography method useful for measuring the enantiomeric purity of dexlansoprazole or a compound of formula (VII) of the present application involves the use of a Chiralpak-IC, 250×4.6 mm or equivalent column.
Products from certain of the above examples and a crystalline dexlansoprazole, prepared according to Example 2 of U.S. Pat. No. 6,462,058, were tested for their storage stabilities. The samples were stored in tied clear polyethylene bags that were placed in sealed black polyethylene bags along with a silica gel desiccant pouch filled with nitrogen, and finally the black bags were placed into triple laminated foil bags along with a silica gel pouch and then sealed and stored in HDPE drum packages under the conditions noted in the following results tables. Samples were analyzed before storage, at intervals during storage, and after storage.
Samples were analyzed by HPLC for chemical purity, for:
a “sulfide” impurity, having a chemical name 2-[[{4-(2,2,2-trifluoroethoxy)-3-methylpyridine-2-yl}methyl]thio]-1H-benzimidazole and the following structure;
a “sulfone” impurity, having a chemical name 2-[[{4-(2,2,2-trifluoroethoxy)-3-methylpyridine-2-yl}methyl]sulfonyl]-1H-benzimidazole and the following structure;
and for chiral purity. Also given in the tables is the concentration of the highest unidentified impurity, as determined by HPLC, and the PXRD analysis result. All percentages given below are expressed on a weight basis.

[1] = Initial Analysis, before storage

With Cc1c(OCC(F)(F)F)ccnc1C[S@@+]([O-])c1nc2ccccc2[nH]1 [Crystalline Drug, dexlansoprazole] the Appearance (After 1 Week at 2-8° C.) was “Cream color”, the PXRD (After 1 Week at 2-8° C.) was “Crystalline” and the “Chiral Purity” value (After 1 Week at 2-8° C.) was 88.02%. For the same compound, the “Highest Impurity” value (After 1 Week at 2-8° C.) was 0.14%, the Purity (After 1 Week at 2-8° C.) was 95.39% and the Sulfide (After 1 Week at 2-8° C.) was 2.48%. The Sulfone (After 1 Week at 2-8° C.) was 1.68%, the Appearance (After 1 Week at 25-35° C.) was “Cream color” and the PXRD (After 1 Week at 25-35° C.) was “Crystalline”. The “Chiral Purity” value (After 1 Week at 25-35° C.) was 87.8%, the “Highest Impurity” value (After 1 Week at 25-35° C.) was 0.14% and the Purity (After 1 Week at 25-35° C.) was 95.28%. The Sulfide (After 1 Week at 25-35° C.) was 2.48%, the Sulfone (After 1 Week at 25-35° C.) was 1.77% and the Appearance (After 2 Weeks at 2-8° C.) was “Cream color”. The PXRD (After 2 Weeks at 2-8° C.) was “Crystalline”, the “Chiral Purity” value (After 2 Weeks at 2-8° C.) was 88.49% and the “Highest Impurity” value (After 2 Weeks at 2-8° C.) was 0.13%. It also gave a Purity (After 2 Weeks at 2-8° C.) of 95.19%, a Sulfide (After 2 Weeks at 2-8° C.) of 2.36% and a Sulfone (After 2 Weeks at 2-8° C.) of 1.62%. For the same compound, the Appearance (After 2 Weeks at 25-35° C.) was “Cream color”, the PXRD (After 2 Weeks at 25-35° C.) was “Crystalline” and the “Chiral Purity” value (After 2 Weeks at 25-35° C.) was 88.34%. For the same compound, the “Highest Impurity” value (After 2 Weeks at 25-35° C.) was 0.13%, the Purity (After 2 Weeks at 25-35° C.) was 95.19% and the Sulfide (After 2 Weeks at 25-35° C.) was 2.36%. For the same compound, the Sulfone (After 2 Weeks at 25-35° C.) was 1.62%, the Appearance (After 3 Weeks at 2-8° C.) was “Cream color” and the PXRD (After 3 Weeks at 2-8° C.) was “Crystalline”. The “Chiral Purity” value (After 3 Weeks at 2-8° C.) was 88.34%, the “Highest Impurity” value (After 3 Weeks at 2-8° C.) was 0.14% and the Purity (After 3 Weeks at 2-8° C.) was 95.65%. The Sulfide (After 3 Weeks at 2-8° C.) was 2.31%, the Sulfone (After 3 Weeks at 2-8° C.) was 1.61% and the Appearance (After 3 Weeks at 25-35° C.) was “Cream color”. The PXRD (After 3 Weeks at 25-35° C.) was “Crystalline”, the “Chiral Purity” value (After 3 Weeks at 25-35° C.) was 88.27% and the “Highest Impurity” value (After 3 Weeks at 25-35° C.) was 0.13%. It also gave a Purity (After 3 Weeks at 25-35° C.) of 95.4%, a Sulfide (After 3 Weeks at 25-35° C.) of 2.39% and a Sulfone (After 3 Weeks at 25-35° C.) of 1.65%. For the same compound, the Appearance [1] was “Cream color”, the PXRD [1] was “Crystalline” and the “Chiral Purity” value [1] was 88.13%. For the same compound, the “Highest Impurity” value [1] was 0.15%, the Purity [1] was 95.4% and the Sulfide [1] was 2.41%. For the same compound, the Sulfone [1] was 1.66%.

Source: patent US20110028518A1, “DEXLANSOPRAZOLE PROCESS AND POLYMORPHS” (DR. REDDY'S LABORATORIES LTD., priority 2008, published 2011)
